Test results from ChEMBL document CHEMBL4138122, “Azaphenothiazines - promising phenothiazine derivatives. An insight into nomenclature, synthesis, structure elucidation and biological properties” (Eur J Med Chem, 2017).
Converted amounts (≈) assume the structure as drawn.

Key:
PBMC [1] = assay: Inhibition of LPS-induced TNFalpha profduction in human PBMC at 5 ug/ml; assay type: functional
PBMC [2] = assay: Cytotoxicity in human PBMCs assessed as reduction in cel viability at 50 ug/ml; assay type: cell-based
Mus musculus [3] = assay: Anti-inflammatory activity in mouse IL-1-induced paw inflammation model assessed as inhibition of neutrophil infiltration at 10 mg/kg, po; assay type: functional; conditions: for inhibition in vivo at 10 mg/kg: Mus musculus, po
Mus musculus [4] = assay: Neuropharmacological activity in iv dosed Charles River Swiss mouse assessed as minimum dose at which reactive signs were observed in half of mouse tested; assay type: functional
[5] = target: Intercellular adhesion molecule 1 (Homo sapiens, UniProt P05362); assay: Inhibition of ICAM1 (unknown origin)
UO-31 = assay: Growth inhibition of human UO31 cells at 10 uM; assay type: functional; conditions: read-out: GI
Mus musculus [6] = assay: Analgesic activity in mouse assessed as reduction in phenylquinone-induced number of writhes at 20 mg/kg, ip; assay type: functional; parameters: scale not given: the % may be the effect or the level left
[7] = target: Cholinesterase (Equus caballus) (UniProt P81908); assay: Inhibition of horse serum BChE at 10 uM
MCF7 = assay: Cytotoxicity against human MCF7 cells incubated for 72 hrs by WST1 dye based assay; assay type: functional, cell-based; conditions: MCF7, 72 h
PBMC [8] = assay: Inhibition of PHA-induced cell proliferation of human PBMC at 50 ug/ml incubated for 4 days by MTT method; assay type: functional; conditions: 96 h
Mus musculus [9] = assay: Anti-inflammatory activity in IL1-induced paw inflammation Balb/c mouse model assessed as inhibition of neutrophil migration at 10 mg/kg, po, pretreated for 30 mins followed by IL1 challenge measured after 2 hrs by spectrophotometric method; assay type: functional
HFF-1 = assay: Cytotoxicity against human HFF1 cells incubated for 72 hrs by WST1 dye based assay; assay type: cell-based; conditions: HFF-1, 72 h
[10] = Inhibition of soybean 15-lipoxygenase; parameters: species or system Glycine max

Chain of Intercellular adhesion molecule 1 (P05362 whole entry): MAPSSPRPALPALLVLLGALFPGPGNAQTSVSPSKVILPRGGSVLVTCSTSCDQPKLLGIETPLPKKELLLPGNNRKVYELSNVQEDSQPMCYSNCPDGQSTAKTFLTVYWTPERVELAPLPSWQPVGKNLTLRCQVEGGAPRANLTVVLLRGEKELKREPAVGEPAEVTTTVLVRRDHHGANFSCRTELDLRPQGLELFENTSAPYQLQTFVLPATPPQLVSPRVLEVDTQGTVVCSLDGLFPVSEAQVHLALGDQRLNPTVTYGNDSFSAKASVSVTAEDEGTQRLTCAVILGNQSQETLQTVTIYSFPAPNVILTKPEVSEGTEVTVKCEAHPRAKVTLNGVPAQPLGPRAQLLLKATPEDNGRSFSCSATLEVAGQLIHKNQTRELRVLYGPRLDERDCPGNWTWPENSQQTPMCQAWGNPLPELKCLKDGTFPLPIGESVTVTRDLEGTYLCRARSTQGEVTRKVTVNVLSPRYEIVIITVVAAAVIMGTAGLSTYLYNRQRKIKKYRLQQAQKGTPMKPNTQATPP
Chain of Cholinesterase (Equus caballus) (P81908 whole entry): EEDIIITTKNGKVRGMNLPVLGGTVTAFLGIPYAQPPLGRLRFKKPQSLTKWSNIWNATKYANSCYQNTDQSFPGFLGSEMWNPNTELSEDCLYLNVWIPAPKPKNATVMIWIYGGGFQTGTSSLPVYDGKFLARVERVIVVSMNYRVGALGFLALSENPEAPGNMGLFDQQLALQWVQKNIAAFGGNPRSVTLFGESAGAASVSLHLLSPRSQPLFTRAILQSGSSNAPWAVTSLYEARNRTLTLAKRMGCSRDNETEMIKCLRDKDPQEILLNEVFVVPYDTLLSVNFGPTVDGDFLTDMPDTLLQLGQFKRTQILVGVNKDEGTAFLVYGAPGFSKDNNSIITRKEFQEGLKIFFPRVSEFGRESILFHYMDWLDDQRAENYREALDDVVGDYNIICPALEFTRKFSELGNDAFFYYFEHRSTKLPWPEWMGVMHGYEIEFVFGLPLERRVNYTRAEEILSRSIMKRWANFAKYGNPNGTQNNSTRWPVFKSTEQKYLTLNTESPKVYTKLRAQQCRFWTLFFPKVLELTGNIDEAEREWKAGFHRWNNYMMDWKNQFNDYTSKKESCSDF

SMILES: C=CCN1c2cnccc2Sc2cccnc21
- inhibition at 5 µg/mL (PBMC [1]): > 85%
- Activity (PBMC [2]): <= 22%

SMILES: O=C(O)CC1C2CCC1CN(Cc1ccc3c(c1)Nc1nccnc1S3)C2 (centres undefined)
- inhibition in vivo at 10 mg/kg (Mus musculus [3]): 83.2%

SMILES: CC(C)N(CCSC(=O)N1c2ccccc2Sc2cccnc21)C(C)C
- MED50 (Mus musculus [4]): 0.058 to 1.8 mg/kg

SMILES: O=C(O)C1CC2(CCN(Cc3ccc4c(c3)Nc3nccnc3S4)CC2)C1
- IC50 [5]: 420 to 1000 nM
- inhibition in vivo at 10 mg/kg (Mus musculus [3]): 82.8%

SMILES: c1ccc(CN2c3nc4ccccc4cc3Sc3cc4ccccc4nc32)cc1
- inhibition of growth at 10 µM (UO-31): 57 to 73%

SMILES: CSc1nnc2c3c(cnn12)Sc1ccccc1N3
- Activity (Mus musculus [6]): 54 - 65%

SMILES: O=C(NCCCl)NCCCN1c2ccc(Cl)cc2Sc2cc3ccccc3nc21
- inhibition [7]: 80%

SMILES: O=[N+]([O-])c1ccc(N2c3nc4ccccc4cc3Sc3cc4ccccc4nc32)cc1
- inhibition of growth at 10 µM (UO-31): 57 to 73%

SMILES: CN1CCN(CC#CCN2c3cccnc3Sc3cccnc32)CC1
- IC50 (MCF7): 7.5 µg/mL (≈ 21.3 µM)

SMILES: CC(C)N(CCSC(=O)N1c2cc(F)ccc2Sc2cccnc21)C(C)C
- MED50 (Mus musculus [4]): 0.058 to 1.8 mg/kg

SMILES: c1cnc2c(c1)Sc1ccncc1N2
- inhibition at 50 µg/mL (PBMC [8]): > 70%
- Activity (PBMC [2]): <= 22%

SMILES: CS(=O)(=O)NCC1CCN(Cc2ccc3c(c2)Nc2nccnc2S3)CC1
- inhibition in vivo at 10 mg/kg (Mus musculus [9]): 77.6%
- IC50 [5]: 270 to 1400 nM

SMILES: O=[N+]([O-])c1cnccc1N1c2cccnc2Sc2cccnc21
- IC50 (MCF7): 4.6 µg/mL (≈ 14.2 µM)
- IC50 (HFF-1): ≥ 50 µg/mL

SMILES: c1cnc2c(c1)Sc1ccncc1N2CCN1CCOCC1
- inhibition at 50 µg/mL (PBMC [8]): 60%
- Activity (PBMC [2]): <= 22%

SMILES: c1ccc2c(c1)Nc1nnc(N3CCOCC3)cc1S2
- IC50 [10]: > 287000 nM

SMILES: CC(=O)NCCCN1c2cnccc2Sc2cccnc21
- inhibition at 50 µg/mL (PBMC [8]): 60%
- Activity (PBMC [2]): <= 22%

SMILES: c1cnc2c(c1)Sc1ccncc1N2CCN1CCCC1
- inhibition at 5 µg/mL (PBMC [1]): > 85%
- Activity (PBMC [2]): <= 22%

SMILES: C#CCN1c2cccnc2Sc2cccnc21
- IC50 (MCF7): 3.9 µg/mL (≈ 16.3 µM)

SMILES: c1ccc2c(c1)Nc1nnc(N3CCCC3)cc1S2
- IC50 [10]: > 287000 nM

SMILES: CN1CCN(c2cc3c(nn2)Nc2ccccc2S3)CC1
- IC50 [10]: > 287000 nM

SMILES: CSc1ccc2c(c1)N(C(=O)SCCN(C(C)C)C(C)C)c1ncccc1S2
- MED50 (Mus musculus [4]): 0.058 to 1.8 mg/kg

SMILES: CC(C)N(CCSC(=O)N1c2ccccc2Sc2cc(Cl)cnc21)C(C)C
- MED50 (Mus musculus [4]): 0.058 to 1.8 mg/kg

SMILES: CC(C)N(CCSC(=O)N1c2cc(C(F)(F)F)ccc2Sc2cccnc21)C(C)C
- MED50 (Mus musculus [4]): 0.058 to 1.8 mg/kg

SMILES: CC(CN(C)C)CN1c2cnccc2Sc2cccnc21 (centres undefined)
- inhibition at 50 µg/mL (PBMC [8]): 60%
- inhibition at 5 µg/mL (PBMC [1]): > 85%
- Activity (PBMC [2]): <= 22%

SMILES: CN(C)CCCN1c2cnccc2Sc2cccnc21
- inhibition at 50 µg/mL (PBMC [8]): > 70%
- inhibition at 5 µg/mL (PBMC [1]): > 85%
- Activity (PBMC [2]): <= 22%

SMILES: CS(=O)(=O)NCCC1CCN(Cc2ccc3c(c2)Nc2nccnc2S3)CC1
- inhibition in vivo at 10 mg/kg (Mus musculus [9]): 83.4 to 89.7%
- IC50 [5]: 270 to 1400 nM

SMILES: c1ccc2c(c1)Nc1nnc(N3CCCCC3)cc1S2
- IC50 [10]: > 287000 nM

SMILES: CS(=O)(=O)NC1CCN(Cc2ccc3c(c2)Nc2nccnc2S3)CC1
- inhibition in vivo at 10 mg/kg (Mus musculus [9]): 83.4 to 89.7%
- IC50 [5]: 270 to 1400 nM

SMILES: CCN(CC)CCN1c2cnccc2Sc2cccnc21
- inhibition at 50 µg/mL (PBMC [8]): 60%
- Activity (PBMC [2]): <= 22%

SMILES: c1ccc(CN2c3cnccc3Sc3cccnc32)cc1
- inhibition at 5 µg/mL (PBMC [1]): > 85%
- Activity (PBMC [2]): <= 22%

SMILES: CS(=O)(=O)N1CCN(Cc2ccc3c(c2)Nc2nccnc2S3)CC1
- inhibition in vivo at 10 mg/kg (Mus musculus [9]): 53.4%
- IC50 [5]: 270 to 1400 nM

SMILES: C#CCN1c2cnccc2Sc2cccnc21
- inhibition at 5 µg/mL (PBMC [1]): > 85%
- Activity (PBMC [2]): <= 22%

SMILES: O=C(O)CC1C2CCCC1CN(Cc1ccc3c(c1)Nc1nccnc1S3)C2 (stereo in doubt; 64d)
- IC50 [5]: 2300 nM
- inhibition (INH) (Mus musculus [3]): 80.6%

SMILES: O=C(O)c1ccc(CC2CCN(Cc3ccc4c(c3)Nc3nccnc3S4)CC2)cc1
- IC50 [5]: 420 to 1000 nM
- inhibition in vivo at 10 mg/kg (Mus musculus [3]): 88%

SMILES: CN(C)CCSc1nnc2c3c(cnn12)Sc1ccccc1N3
- Activity (Mus musculus [6]): 54 - 65%

SMILES: CN1CCN(Cc2nnc3c4c(cnn23)Sc2ccccc2N4)CC1
- Activity (Mus musculus [6]): 54 - 65%

SMILES: O=C(O)CC1CC2(CCN(Cc3ccc4c(c3)Nc3nccnc3S4)CC2)C1
- IC50 [5]: 420 to 1000 nM
- inhibition in vivo at 10 mg/kg (Mus musculus [3]): 88.8%

SMILES: CCN(CC)CCSc1nnc2c3c(cnn12)Sc1ccccc1N3
- Activity (Mus musculus [6]): 54 - 65%
